PMC2901175 (ACS medicinal chemistry letters, 2010)
Converted amounts (≈) assume the structure as drawn.

Tests used:
IMP-1 = settings: cited from earlier work
VIM-2 = settings: against VIM-2; cited from earlier work
[1] = system: VIM-2 expressing bacteria; settings: cited from earlier work
BL21/VIM-2 E. coli = test: Imipenem MIC potentiation in VIM-2 transformed E. coli; format: cell-based
parental (BL21) E. coli = test: Imipenem MIC in parental E. coli; format: cell-based; settings: Escherichia coli, read-out: imipenem MIC

| SMILES | activity towards IMP-1 (in words) (IMP-1) | Ki (VIM-2) [nM] | potentiation of ß-lactam antibacterial effects (in words) [1] | fold increase of imipenem MIC, BL21/VIM-2 relative to parental BL21 (BL21/VIM-2 E. coli) | MIC (BL21/VIM-2 E. coli; Escherichia coli, read-out: imipenem MIC) [µg/mL] | MIC (parental (BL21) E. coli) [µg/mL] |
| --- | --- | --- | --- | --- | --- | --- |
| C#CCCOCc1nn[nH]c1CNS(=O)(=O)c1ccc(I)cc1 [Compound 1, N-((4-((but-3-ynyloxy)methyl)-1H-1,2,3-triazol-5-yl)methyl)-4-iodo-benzenesulfonamide] | inactive | 410 ± 30 | did not potentiate | – | – | – |
| O=C(O)c1cc[c]([Hg][Cl])cc1 [pCMB, p-chloromercuribenzoic acid] | – | – | synergistic effect | – | – | – |
| C[C@@H](O)[C@H]1C(=O)N2C(C(=O)O)=C(SCCN=CN)C[C@H]12 [imipenem] | – | – | – | approximately 9 fold | 1.85 | 0.21 (≈ 0.702 µM) |
